Patent publication US5036081A, “Calcium absorption promoter” (Takeda Chemical Industries, Ltd., priority 1988, dated 1991)

Tests used:
[1] = system: bone resorption (antebrachial bones, radius and ulna, of a fetus); assay: tissue or blood; type: cell-based, Sprague-Dawley rat; conditions: for ^45 Ca released into medium: 2 days, mean ± S.D. (n = 5)
Description: Effect of N-(1,3-dihydroxy-2-propyl)valiolamine and 1,25(OH)2 vitamin D3 on bone resorption
The bone resorption rate was determined by the method of Raisz (J. Clin. Invest. 44, 103-116, 1965). Thus, one Sprague-Dawley rat on day 18 of gestation was subcutaneously dosed with 50 μCi of ^45 Ca (an isotope of calcium, in CaCl2) and laparotomy was performed on the next day. The fetuses were aseptically taken out and under a dissecting microscope, the bilateral antebrachial bones (radius and ulna) of a fetus were cut off from the trunk. The connective tissues and cartilages were removed as much as possible to prepare a sample for bone culture. Each piece of bone was cultured in 0.6 ml of BGJb medium (Fitton-Jackson modification, GIBCO Laboratories, U.S.A., supplemented with 2 mg/ml of bovine serum albumin) at 37° C. for 24 hours and after addition of AO-128 at a final concentration of 10 μg/ml or 1,25(OH)2 vitamin D3 at a concentration of 0.8 pg/ml, was further incubated in the same medium for 2 days. The ^45 Ca radioactivity in the medium and that in the bone were respectively counted and the rate (%) of ^45 Ca release from the bone into the medium was calculated by means of the following equation. [formula]
The bones from another fetus of the same litter were incubated without addition of the test compounds for 2 days as controls. The means±S.D. of values found from 5 pieces of bone in each group was calculated and the percentage (%) of the mean value relative to the mean value of the control group was calculated.

[2] = Acute oral toxicity in mice; conditions: mouse, in vivo, mice (NRMI)
[3] = Exogenous calcium absorption promoting effect in rats (oral sucrose + calcium carbonate load, 24 hr urinary calcium); type: in vivo, male rats (Jcl: SD); conditions: for Urinary calcium: sucrose 2.5 g/kg, calcium carbonate 400 mg/kg, 24 hr urine, mean ± S.D.
Description: Exogenous calcium absorption promoting effect of N-(1,3-dihydroxy-2-propyl)valiolamine in rats
Eight-week-old male rats (Jcl: SD) fasted for 20 hours were orally dosed with 72.5% sucrose aqueous solution [2.5 g (sucrose)/kg (body weight)], 5% calcium carbonate aqueous suspension [400 mg (CaCO3)/kg (body weight)] and 0.015, 0.05 or 0.15% aqueous AO-128 solution [0.3, 1.0 or 3.0 mg ((AO-128)/kg (body weight)] and the 24 hr urine was collected for the determination of urinary calcium. The animals were deprived of food during urine collection but had free access to water. The results are shown in Table 2.

[4] = Acute oral toxicity in rats; conditions: rat, in vivo, rats (Wistar)
[5] = Dietary calcium absorption promoting effect in rats (medicated diet; body weight, food consumption, urinary and plasma calcium); type: in vivo, male rats (Jcl: SD); conditions: for Body weight / Plasma calcium / Food consumption / Urinary calcium: mean ± S.D., n=6; for Urinary calcium: ** = 1% level of significance vs control
From the text: Dietary calcium absorption promoting effect of N-(1,3-dihydroxy-2-propyl)valiolamine in rats
Five-week-old male rats (Jcl: SD) were divided into 2 groups and one group (control group) was given a regular diet (CE-2. Japan Clea Co.) while the other group was put on a medicated diet, i.e. CE-2 supplemented with N-(1,3-dihydroxy-2-propyl)valiolamine (AO-128). The level of addition of AO-128 was 10 ppm during the first 10 days and 25 ppm during the subsequent 7 days. On days 3, 10 and 17 of feeding, the body weight, food consumption, urinary calcium excretion, and plasma calcium concentration were determined.

[6] = Day 17, 10 ppm first 10 days then 25 ppm 7 days in diet

C=C1/C(=C\C=C2/CCC[C@]3(C)[C@@H]([C@H](C)CCCC(C)(C)O)CC[C@@H]23)C[C@@H](O)C[C@@H]1O [1,25(OH)2 vitamin D3, reference compound]
^45 Ca released into medium ([1]; 0.8 pg/ml, control 12.3 ± 2.2, *p < 0.001): 26.6 ± 2.2%
fold induction at 800 fg/mL ([1]; Rattus norvegicus, 48 h, read-out: increase in the release of ^45 Ca into the medium): 2.2

OCC(CO)N[C@H]1C[C@](O)(CO)[C@@H](O)[C@H](O)[C@H]1O [AO-128, N-(1,3-dihydroxy-2-propyl)valiolamine]
effect on bone resorption (in words) ([1]; 10 μg/ml): no change
^45 Ca released into medium ([1]; 10 μg/ml, control 12.7 ± 3.2): 12.6 ± 2.5%
LD50 [2]: 14700 to 21500 mg/kg
Urinary calcium ([3]; AO-128 0.3 mg/kg oral, n=7): 311 ± 214 µg/day
Urinary calcium ([3]; AO-128 1.0 mg/kg oral, n=6, * = 2% level of significance vs control): 441 ± 172 µg/day
Urinary calcium ([3]; AO-128 3.0 mg/kg oral, n=6, ** = 1% level of significance vs control): 517 ± 195 µg/day
absorption of calcium (in words) ([3]; administered concurrently with a carbohydrate and calcium, based on the two experiments): increases the absorption of calcium
urinary calcium (in words) ([3]; concurrent with calcium carbonate and sucrose): dose-dependent increase
LD50 [4]: ~20000 mg/kg
body weight gain (in words) ([5]; AO-128 group, diet 10 then 25 ppm): a tendency of suppressed body weight gain
Body weight ([5]; Day 3, 10 ppm in diet): 143 ± 7 g
Plasma calcium ([5]; Day 3, 10 ppm in diet): 10.8 ± 0.5 mg/dL
Food consumption ([5]; Day 3, 10 ppm in diet, * = 5% level of significance vs control): 12.7 ± 1.7 g/day
Urinary calcium ([5]; Day 3, 10 ppm in diet): 1.99 ± 0.67 mg/day
Body weight ([5]; Day 10, 10 ppm in diet): 176 ± 8 g
Food consumption ([5]; Day 10, 10 ppm in diet): 22.7 ± 2.3 g/day
Plasma calcium ([5]; Day 10, 10 ppm in diet): 10.3 ± 0.5 mg/dL
Urinary calcium ([5]; Day 10, 10 ppm in diet): 2.10 ± 0.54 mg/day
Body weight [5, 6]: 250 ± 14 g
Food consumption [5, 6]: 24.5 ± 2.0 g/day
Plasma calcium [5, 6]: 9.9 ± 0.3 mg/dL
urinary calcium excretion (in words) ([5]; all determination days): increases
food consumption (in words) ([5]; day 3): slight decrease on day 3
food consumption (in words) ([5]; day 10): recovery on day 10
food consumption (in words) ([5]; day 17): a tendency of increase in day 17
plasma calcium concentration (in words) ([5]; days 3, 10 and 17): no significant change
